The source of these data is PMC9425443 (RSC Advances, 2022).

In series [1] the target is T1, CYP142A1 C281S (Mycobacterium tuberculosis, UniProt P9WPL5, C281S). As to conditions: pH 7.4.
Series [2] deals with T2, CYP142A1 C296S (Mycobacterium tuberculosis, UniProt P9WPL5, C296S). As to conditions: pH 7.4.
The target of series [3] is T3, CYP142A1 C110S (Mycobacterium tuberculosis, UniProt P9WPL5, C110S). As to conditions: pH 7.4.
Series [4] deals with T4, CYP142A1 C118S (Mycobacterium tuberculosis, UniProt P9WPL5, C118S). As to conditions: pH 7.4.
In series [5] the target is T5, CYP142A1 C316S (Mycobacterium tuberculosis, UniProt P9WPL5, C316S). As to conditions: pH 7.4.
Series [6] has as its target T6, CYP142A1 C123S (Mycobacterium tuberculosis, UniProt P9WPL5, C123S). As to conditions: pH 7.4.
The target in series [7] is T2, CYP142A1 C296S. Type of series: biochemical.
Series [8] deals with T1, CYP142A1 C281S. Type of series: biochemical.
The target of series [9] is T5, CYP142A1 C316S. It counts as biochemical.
Series [10] deals with T4, CYP142A1 C118S. It counts as biochemical.
Series [11] has as its target T3, CYP142A1 C110S. It counts as biochemical.
Series [12] deals with T6, CYP142A1 C123S. Type of series: biochemical.

Structures can show the parent of a compound that is named as a salt.

With Cholesteryl propionate, the equilibrium dissociation constant (Kd) is 47 ± 7.6 µM on CYP142A1 C281S [1]; 48 ± 5.9 µM at CYP142A1 C296S [2]; 35 ± 4.9 µM at CYP142A1 C110S [3]; 43 ± 10 µM at CYP142A1 C118S [4]; 46 ± 6.8 µM on CYP142A1 C316S [5]; 23 ± 5 µM at CYP142A1 C123S [6].
For `CC(C)CCC[C@@H](C)[C@H]1CC[C@H]2[C@@H]3CC=C4C[C@@H](OS(=O)(=O)O)CC[C@]4(C)[C@H]3CC[C@]12C` [Cholesteryl sulfate], the Kd came out at 37 ± 8.8 µM at CYP142A1 C281S [1]; 25 ± 9.6 µM on CYP142A1 C296S [2]; 37 ± 8.7 µM at CYP142A1 C110S [3]; 33 ± 4.3 µM at CYP142A1 C118S [4]; 26 ± 8 µM at CYP142A1 C316S [5]; 35 ± 9.3 µM on CYP142A1 C123S [6].
In the case of `CC(C)CCC[C@@H](C)[C@H]1CC[C@H]2[C@@H]3CCC4=CC(=O)CC[C@]4(C)[C@H]3CC[C@]12C` [Cholest-4-en-3-one], the kcat was 0.0767 ± 0.00583 s⁻¹ at CYP142A1 C296S [7]; 0.0917 ± 0.00617 s⁻¹ on CYP142A1 C281S [8]; 0.0783 ± 0.00617 s⁻¹ at CYP142A1 C316S [9]; 0.0933 ± 0.00633 s⁻¹ at CYP142A1 C118S [10]; 0.11 ± 0.0113 s⁻¹ on CYP142A1 C110S [11]; 0.085 ± 0.00617 s⁻¹ at CYP142A1 C123S [12].

As usually defined, the Kd is a measure of binding affinity in units of concentration. The low end stands for tighter binding, the high end for weaker binding. Broadly, the kcat is the number of substrate molecules converted per active site and unit of time at saturation.
